In ChEMBL document CHEMBL5046280, “Discovery of Small-Molecule Inhibitors of the PD-1/PD-L1 Axis That Promote PD-L1 Internalization and Degradation” (J Med Chem, 2022):
The source made the active and inactive calls. The rule behind the calls is not given here.

Tests used:
[1] = molecular target: Programmed cell death protein 1/Programmed cell death 1 ligand 1 (Homo sapiens, UniProt Q9NZQ7); experiment: Inhibition of PD-1/PD-L1 (unknown origin) interaction pre-incubated for 15 mins and measured after 90 mins by TR-FRET assay; format: protein-complex assay
CT26 [2] = experiment: Antitumor immunity activity against mouse CT26 cells implanted in BALB/c mouse assessed as upregulation of IFN-gamma mRNA at 160 mg/kg, po administered once daily for 2 weeks by qRT-PCR analysis; format: functional, organism-based
B16-F10 [3] = experiment: Antitumor activity against po dosed mouse B16-F10 cells implanted in […] mouse assessed as inhibition of tumor volume in presence of PD-L1 antibody administered once daily for 2 weeks; format: functional, organism-based; conditions: dose 40-160 mg/kg
CT26 [4] = experiment: Antitumor activity against mouse CT26 cells implanted in BALB/c mouse assessed as inhibition of tumor cell growth in tumor tissue at 40 to 160 mg/kg, po administered once daily for 2 weeks by H and E staining based assay; format: functional, organism-based; conditions: dose 40-160 mg/kg
B16-F10 [5] = experiment: Antitumor activity against mouse B16-F10 cells implanted in […] mouse assessed as inhibition of tumor volume at 160 mg/kg, po administered once daily for 2 weeks; format: functional, organism-based
CT26 [6] = experiment: Antitumor immunity activity against mouse CT26 cells implanted in BALB/c mouse assessed as upregulation of CXCL10 mRNA at 160 mg/kg, po administered once daily for 2 weeks by qRT-PCR analysis; format: functional, organism-based
CT26 [7] = experiment: Antitumor activity against mouse CT26 cells implanted in BALB/c mouse assessed as downregulation of human PD-Ll expression in tumor tissue at 160 mg/kg per day, po administered once daily for 2 weeks by Western blotting analysis; format: functional, organism-based
CT26 [8] = experiment: Antitumor activity against mouse CT26 cells implanted in BALB/c mouse assessed as upregulation of human PD-L1 expression in tumor tissue at 40 mg/kg per day, po administered once daily for 2 weeks by Western blotting analysis; format: functional, organism-based
B16-F10 [9] = experiment: Antitumor immunity activity against mouse B16-F10 cells implanted in […] mouse assessed as increase level of IFN-gamma mRNA at 40 to 160 mg/kg, po administered once daily for 2 weeks in presence of PD-L1 antibody by […]; format: functional, organism-based; conditions: dose 40-160 mg/kg
[10] = Toxicity in BALB/c mouse harbouring mouse CT26 cells assessed as change in body weight at 40 to 120 mg/kg, po administered once daily for 2 weeks; format: organism-based; conditions: in vivo, 336 h, dose 40-120 mg/kg
MDA-MB-231 = experiment: Antitumor immunity against human MDA-MB-231 cells co-cultured with CD3/CD28/CD2 T cell activator stimulated human PMBC assessed as tumor cell viability measuring lactate dehydrogenase release measured for 14 hrs by PBMC killing assay relative to control; format: functional, cell-based
B16-F10 [11] = experiment: Antitumor activity against mouse B16-F10 cells implanted in […] mouse assessed as decrease in nucleus to cytoplasm interaction in tumor cells at 40 to 160 mg/kg, po administered once daily for 2 weeks in presence of PD-L1 antibody by H and E staining based assay; format: functional, organism-based; conditions: dose 40-160 mg/kg
CT26 [12] = experiment: Antitumor activity against mouse CT26 cells implanted in BALB/c mouse assessed as downregulation of human PD-L1 expression in tumor tissue at 80 mg/kg per day, po administered once daily for 2 weeks by Western blotting analysis; format: functional, organism-based
CT26 [13] = experiment: Antitumor activity against mouse CT26 cells implanted in BALB/c mouse assessed as increase in infiltration of CD8+ T cells level in tumor tissue po administered once daily for 2 weeks by flow cytometry; format: functional, organism-based; conditions: dose 40-160 mg/kg
CT26 [14] = experiment: Antitumor activity against mouse CT26 cells implanted in BALB/c mouse assessed as reduction in tumor weight at 40 mg/kg, po administered once daily for 2 weeks; format: functional; parameters: scale not given: the % may be the effect or the level left
CT26 [15] = experiment: Antitumor immunity activity against mouse CT26 cells implanted in BALB/c mouse assessed as upregulation of CXCL9 mRNA at 160 mg/kg, po administered once daily for 2 weeks by qRT-PCR analysis; format: functional, organism-based
[16] = Toxicity in BALB/c mouse harbouring mouse CT26 cells assessed as mortality at 40 to 120 mg/kg, po administered once daily for 2 weeks; format: organism-based; conditions: in vivo, 336 h, dose 40-120 mg/kg
CT26 [17] = experiment: Antitumor activity against po dosed mouse CT26 cells implanted in BALB/c mouse assessed as tumor growth delay treated once daily for 2 weeks; format: functional, organism-based; conditions: dose 40-160 mg/kg
B16-F10 [18] = experiment: Antitumor activity against po dosed mouse B16-F10 cells implanted in […] mouse assessed as increase in infiltration of CD8+ T cells level in tumor tissue administered once daily for 2 weeks by flow cytometry; format: functional, organism-based; conditions: dose 40-160 mg/kg
B16-F10 [19] = experiment: Antitumor activity against mouse B16-F10 cells implanted in […] mouse assessed as decrease in human PD-Ll expression in tumor at 80 mg/kg, po administered once daily for 2 weeks in presence of PD-L1 antibody by Western blotting analysis; format: functional, organism-based
CT26 [20] = experiment: Antitumor activity against mouse CT26 cells implanted in BALB/c mouse assessed as reduction in tumor weight at 80 mg/kg, po administered once daily for 2 weeks; format: functional; parameters: scale not given: the % may be the effect or the level left
B16-F10 [21] = experiment: Antitumor immunity activity against mouse B16-F10 cells implanted in […] mouse assessed as increase level of IFN-gamma level in tumor tissue at 40 to 160 mg/kg, po administered once daily for 2 weeks by flow cytometry; format: functional, organism-based; conditions: dose 40-160 mg/kg
[22] = molecular target: Programmed cell death 1 ligand 1 (Homo sapiens, UniProt Q9NZQ7); experiment: Binding affinity to human PD-L1 assessed as dissociation constant by micro-scale thermophoresis analysis
B16-F10 [23] = experiment: Antitumor activity against mouse B16-F10 cells implanted in […] mouse assessed as decrease in nucleus to cytoplasm interaction in tumor cells at 40 to 160 mg/kg,po administered once daily for 2 weeks by H and E staining based assay; format: functional, organism-based; conditions: dose 40-160 mg/kg
B16-F10 [24] = experiment: Antitumor activity against mouse B16-F10 cells implanted in […] mouse assessed as increase in infiltration of CD8+ T cells level in tumor tissue at 40 to 160 mg/kg,po administered once daily for 2 weeks in presence of PD-L1 antibody by flow cytometry; format: functional, organism-based; conditions: dose 40-160 mg/kg
[25] = molecular target: Programmed cell death 1 ligand 1 (Mus musculus, UniProt Q9EP73); experiment: Binding affinity to mouse PD-L1 assessed as dissociation constant by micro-scale thermophoresis analysis
B16-F10 [26] = experiment: Antitumor activity against mouse B16-F10 cells implanted in […] mouse assessed as inhibition of tumor volume at 80 mg/kg, po administered once daily for 2 weeks in presence of PD-L1 antibody; format: functional, organism-based
CT26 [27] = experiment: Antitumor activity against mouse CT26 cells implanted in BALB/c mouse assessed as reduction in tumor weight at 160 mg/kg, po administered once daily for 2 weeks; format: functional; parameters: scale not given: the % may be the effect or the level left

Chain of Programmed cell death protein 1/Programmed cell death 1 ligand 1 (Q15116 whole entry): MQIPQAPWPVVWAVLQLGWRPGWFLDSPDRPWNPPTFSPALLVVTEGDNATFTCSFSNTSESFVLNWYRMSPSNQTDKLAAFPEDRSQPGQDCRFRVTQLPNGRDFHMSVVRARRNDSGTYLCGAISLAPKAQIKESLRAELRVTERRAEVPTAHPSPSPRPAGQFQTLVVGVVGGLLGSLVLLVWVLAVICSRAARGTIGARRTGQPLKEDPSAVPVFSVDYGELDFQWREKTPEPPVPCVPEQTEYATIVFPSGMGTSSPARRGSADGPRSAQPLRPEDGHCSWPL
Chain of Programmed cell death protein 1/Programmed cell death 1 ligand 1 (Q9NZQ7 whole entry): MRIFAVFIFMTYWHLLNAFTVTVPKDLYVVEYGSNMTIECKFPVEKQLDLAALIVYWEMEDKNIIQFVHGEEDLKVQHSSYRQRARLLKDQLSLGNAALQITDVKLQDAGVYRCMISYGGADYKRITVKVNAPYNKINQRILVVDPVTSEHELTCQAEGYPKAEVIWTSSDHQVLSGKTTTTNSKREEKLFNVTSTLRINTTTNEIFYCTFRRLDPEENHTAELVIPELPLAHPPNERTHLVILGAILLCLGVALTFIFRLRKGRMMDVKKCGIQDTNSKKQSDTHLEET
Chain of Programmed cell death 1 ligand 1 (Homo sapiens, UniProt Q9NZQ7) (Q9NZQ7 whole entry): as above
Chain of Programmed cell death 1 ligand 1 (Mus musculus, UniProt Q9EP73) (Q9EP73 whole entry): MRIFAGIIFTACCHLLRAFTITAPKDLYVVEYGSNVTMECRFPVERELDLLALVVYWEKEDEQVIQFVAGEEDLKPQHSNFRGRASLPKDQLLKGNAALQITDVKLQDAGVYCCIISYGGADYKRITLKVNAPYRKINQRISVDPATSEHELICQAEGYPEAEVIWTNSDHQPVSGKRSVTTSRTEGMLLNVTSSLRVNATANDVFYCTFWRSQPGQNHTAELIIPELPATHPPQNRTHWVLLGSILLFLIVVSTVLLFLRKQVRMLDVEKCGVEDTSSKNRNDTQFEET

Which IC50 [1] does the source give for `Cc1c(-c2ccccc2)cccc1-c1nnc(Nc2cccc(CNCCN)c2)o1` here?
Its IC50 is 152 µM.

With `COc1ccc(Nc2nnc(-c3ccc([N+](=O)[O-])cc3)o2)cc1` as the compound, how does the IC50 [1] read?
The IC50 was 64.1 µM.

Which IC50 [1] does the source give for `Cc1c(-c2ccccc2)cccc1-c1nnc(Nc2cccc(CNCC(=O)O)c2)o1` here?
Its IC50 is 24.5 µM.

With `Cc1c(-c2ccccc2)cccc1-c1nnc(Nc2cccc(CN(C)CCO)c2)o1` as the compound, how does the IC50 [1] read?
The IC50 was 67.1 µM.

For `COc1ccc(Nc2nnc(-c3cccc(-c4ccccc4)c3C)o2)cc1`, which IC50 [1] is on record?
The IC50 was 2.64 µM.

For `Cc1c(-c2ccccc2)cccc1-c1nnc(Nc2cccc(CN3CCOCC3)c2)o1`, which IC50 [1] is on record?
Its IC50 is 64.1 µM.

For `Cc1c(-c2ccccc2)cccc1-c1nnc(Nc2cccc(CN3CC[C@@H](O)C3)c2)o1`, which IC50 [1] is on record?
The IC50 was 46.4 µM.

Which IC50 [1] does the source give for `COc1ccc(Nc2nnc(-c3ccc(-c4ccccc4)c(C)c3)o2)cc1` here?
The IC50 was over 100 µM.

For `Cc1c(-c2ccccc2)cccc1-c1nnc(Nc2cccc(CN[C@H](C)CO)c2)o1`, which IC50 [1] is on record?
Its IC50 is 70 µM.

With `CC(=O)NCCNCc1ccc(Nc2nnc(-c3cccc(-c4ccccc4)c3C)o2)cc1` as the compound, how does the IC50 [1] read?
The IC50 was 1800 µM.

Which IC50 [1] does the source give for `Cc1c(-c2ccccc2)cccc1-c1nnc(Nc2ccc(CNCC(=O)O)cc2)o1` here?
The IC50 was 516 µM.

Which results are given for `Cc1c(-c2ccccc2)cccc1-c1nnc(Nc2cccc(CNCCO)c2)o1`?
Activity (CT26 [2]): Active; Activity (B16-F10 [3]): Dose-Dependent Effect; Activity (CT26 [4]): Dose-Dependent Effect; Activity (B16-F10 [5]): Active; Activity (CT26 [6]): Active; Activity (CT26 [7]): Active; Activity (CT26 [8]): inactive; Activity (B16-F10 [9]): Active; Activity [10]: Non-Toxic; Activity (MDA-MB-231): Active; Activity (B16-F10 [11]): Active; Activity (CT26 [12]): Active; Activity (CT26 [13]): Dose-Dependent Effect; IC50 [1]: 27.8 µM; Activity (CT26 [14]): 45%; Activity (CT26 [15]): Active; Activity [16]: Non-Toxic; Activity (CT26 [17]): Dose-Dependent Effect; Activity (B16-F10 [18]): Dose-Dependent Effect; Activity (B16-F10 [19]): Active; Activity (CT26 [20]): 55%; Activity (B16-F10 [21]): Active; Kd [22]: 0.025 µM; Activity (B16-F10 [23]): Active; Activity (B16-F10 [24]): Dose-Dependent Effect; Kd [25]: 0.48 µM; Activity (B16-F10 [26]): Active; Activity (CT26 [27]): 75%

Which IC50 [1] does the source give for `CC(=O)NCCNCc1cccc(Nc2nnc(-c3cccc(-c4ccccc4)c3C)o2)c1` here?
The IC50 was 34.1 µM.

Which IC50 [1] does the source give for `Cc1c(-c2ccccc2)cccc1-c1nnc(Nc2cccc(CNCCCO)c2)o1` here?
Its IC50 is 55.9 µM.

With `Cc1c(-c2ccccc2)cccc1-c1nnc(Nc2ccc(CNCCO)cc2)o1` as the compound, how does the IC50 [1] read?
The IC50 was 744 µM.
